Earlier results, collected in patent publication US12029226B2, “Concentrate for preparing a drinkable solution (II)” (Alzchem Trostberg GmbH, priority 2019, dated 2024).

Conditions: literature value

Row | Compound | pKs value
1 | O=CO [formic acid] | 3.77
2 | CC(O)C(=O)O (centres unmarked) [lactic acid] | 3.90+/−0.11
